Our source for the EC50 and CC50 values is ChEMBL document CHEMBL1156829 (Proc Natl Acad Sci U S A, 2008).

For series [1], the system named is Plasmodium falciparum. In words: NOVARTIS: Inhibition of Plasmodium falciparum 3D7 (drug-susceptible) proliferation in erythrocyte-based infection assay. The format is functional, organism-based. Particulars: Plasmodium falciparum, 3D7.
In series [2] the test system is Plasmodium falciparum. The series can be described thus: NOVARTIS: Inhibition of Plasmodium falciparum W2 (drug-resistant) proliferation in erythrocyte-based infection assay. The conditions noted are these: Plasmodium falciparum, W2; read-out: EC50. The format is functional, organism-based.
A short description of series [3]: NOVARTIS: Cytotoxicity against human hepatocellular carcinoma cell line (Huh7). Particulars: Huh7 cells (hepatocellular carcinoma cell line). The format is toxicity, cell-based, Huh-7.

Turning to `Nc1nc(N)c2nc(CCc3ccc(C(=O)N[C@H](CCC(=O)O)C(=O)O)cc3)cnc2n1`, the EC50 turned out to be 29.5 nM in the series on Plasmodium falciparum [1] and 1.78 nM with Plasmodium falciparum [2]. The CC50 in series [3] is 8.1 nM.
The matching figures for `COc1ccc(NC(=O)c2c(Cl)nc(Cl)c([N+](=O)[O-])c2C)cc1`: over 1250 nM, 2060 nM and over 10000 nM.
For `CC(=O)Nc1ccc(C(C)=NNc2nc(Nc3cc(C)ccc3C)nc(N3CCOCC3)n2)cc1` the same measures were over 1250 nM, 2060 nM and over 10000 nM.
As for `CCCCSc1oc(C)nc1[P+](c1ccccc1)(c1ccccc1)c1ccccc1`, the EC50 in the series on Plasmodium falciparum [1] was 203 nM; in the series on Plasmodium falciparum [2], 583 nM. In series [3], this molecule returned a CC50 of 2640 nM.
For `Cc1cccc(C)c1NC(=O)C(O)c1ccc(Cl)cc1Cl` (stereo not given) the same measures were over 1250 nM, 2200 nM and over 10000 nM.
Regarding `O=C(NCCN1CCCCC1)c1ccc(OC2CCN(CC3CCCCC3)CC2)c(Cl)c1`, the EC50 in the series on Plasmodium falciparum [1] stood at 344 nM; in the series on Plasmodium falciparum [2], 1170 nM. The same molecule registered a CC50 in series [3] of 5370 nM.
The matching figures for `N#Cc1ccccc1CN1CCC(Oc2cccc3onc(N)c23)CC1`: over 1660 nM, 189 nM and 891 nM.
For `CN1C=C(c2ccc3ccccc3n2)C(C[N+](=O)[O-])c2ccccc21` (stereo not given) the same measures were 791 nM, 2110 nM and over 10000 nM.
For `Nc1ccc2[nH]c(/C=C/c3ccc(Cl)cc3)nc2c1` the same measures were over 1250 nM, 2080 nM and over 10000 nM.
As for `Cc1sc2nc(CN(C(=O)CCc3ccccc3)C3CCCCC3)[nH]c(=O)c2c1C`, the EC50 is over 1250 nM in the series with Plasmodium falciparum [1] and 424 nM in the series on Plasmodium falciparum [2]. The CC50 in series [3] amounted to 1940 nM.
The matching figures for `COc1ccc2[nH]c3c(c2c1)CCNC3c1ccc(OC)c(CSc2nnc(-c3ccccc3)o2)c1` (stereo not given): 4050 nM, 1990 nM and 7420 nM.
In the case of `OCCNCCNCc1ccc2[nH]c3ccccc3c2c1`, the EC50 in the series on Plasmodium falciparum [1] turned out to be 291 nM; with Plasmodium falciparum [2], 7600 nM. The molecule further had a CC50 in series [3] of 28900 nM.
As to `COc1cc(NC(C)CCCN(Cc2ccc(OC)c(OC)c2)C(=O)NC2CCCCC2)c2ncccc2c1` (stereo not given), the values for the EC50 in the series on Plasmodium falciparum [1] and with Plasmodium falciparum [2] were 676 nM and 337 nM, respectively. In addition, in series [3], the CC50 was 1300 nM.
Regarding `N#CN=C(N)c1sc(Nc2ccccc2)nc1N`, the EC50 was 806 nM in the series on Plasmodium falciparum [1] and 2390 nM in the series with Plasmodium falciparum [2]. Moreover, half-maximal cytotoxicity in series [3] (CC50) was put at 9370 nM.
For `CC(C)CN(CC(=O)N1CCC(Nc2nsc3ccccc23)C1)S(C)(=O)=O` (stereo not given) the same measures were 1980 nM, 3940 nM and 15700 nM.
For `COc1ccc(C(=O)N2C(C(=O)NCCC(C)C)CSC2c2ccc(C(C)(C)C)cc2)cc1` (stereo not given) the same measures were 797 nM, 1120 nM and over 4480 nM.
The matching figures for `NC(=O)c1ccc2c(c1)N=C(/C=C/c1ccccc1)N(C1CC1)C2`: 74.7 nM, 5600 nM and 23000 nM.
As for `CC(=O)N(/C=C1/Sc2ccccc2C1=O)c1ccc(C)cc1`, the concentration for a half-maximal effect (EC50) in the series on Plasmodium falciparum [1] is over 1250 nM; in the series on Plasmodium falciparum [2] it was 2410 nM. For the same molecule, the CC50 in series [3] was over 10000 nM.
Turning to `CN(C)CCN1CCN(c2ccnc3cc4ccccc4cc23)CC1`, the EC50 with Plasmodium falciparum [1] was 108 nM; with Plasmodium falciparum [2] it was 369 nM. For the same molecule, in series [3], it took 1550 nM to reach half-maximal cytotoxicity (CC50).
The matching figures for `CCC(C)(C)C1CCc2c(sc(NC(=O)c3ccc(F)cc3)c2C(N)=O)C1` (stereo not given): over 1250 nM, 2340 nM and over 10000 nM.
For `CCN(C(=O)Cn1c(=O)oc2ccccc21)c1ccc(F)cc1` the same measures were over 1530 nM, 2310 nM and over 10000 nM.
Consider `Cc1ccc2nc(C)cc(NCCCN(C)C)c2c1`, for which the figures for the EC50 in the series on Plasmodium falciparum [1] and with Plasmodium falciparum [2] were 410 nM and 824 nM, respectively. This molecule showed a CC50 in series [3] of over 3620 nM.
The matching figures for `COc1ccc(C2C(C(=O)Nc3ccc(OC)c(OC)c3)CCC(=O)N2c2ccc(OC)cc2)cc1` (stereo not given): over 1360 nM, 2270 nM and over 10000 nM.
The matching figures for `COc1ccccc1C1SCCN1C(=O)Nc1ccc(Cl)c(Cl)c1` (stereo not given): over 1020 nM, 2260 nM and over 10000 nM.
With `O=C(CCC1CCCC1)NC1CCC(Nc2ccnc3cc(Cl)ccc23)CC1` (stereo not given), the EC50 with Plasmodium falciparum [1] was 1010 nM; in the series on Plasmodium falciparum [2], 875 nM. Besides, the CC50 in series [3] was over 3890 nM.
For `O=C(Nc1cc(C(F)(F)F)cc(C(F)(F)F)c1)Nc1ccc2nnsc2c1` the same measures were 6370 nM, 4360 nM and 19400 nM.
The matching figures for `O=C(Nc1ccncc1)Nc1cccc(NC(=O)Nc2ccncc2)c1`: over 1250 nM, 2230 nM and over 10000 nM.
The matching figures for `O=C(NC(Cc1ccccc1)c1nnc(SCc2ccc(F)cc2)n1-c1ccc(Cl)cc1Cl)C1CCCCC1` (stereo not given): 748 nM, 350 nM and 1660 nM.
As for `O=C(O)c1ccc(S(=O)(=O)c2ccc3c(c2)C(=O)N(c2ccc(Sc4ccc([N+](=O)[O-])cc4)cc2)C3=O)cc1`, the EC50 in the series with Plasmodium falciparum [1] is over 1250 nM; in the series with Plasmodium falciparum [2] it was 2070 nM. In series [3], this molecule gave a 50% cytotoxic concentration (CC50) of over 10000 nM.
For `COc1cc(-c2nc3ccc(N4CCN(C)CC4)cc3[nH]2)cc(OC)c1OC` the same measures were 733 nM, 5570 nM and 21200 nM.
For `CC(=O)Nn1c(C(C)(C)C)nc2ccccc2c1=O` the same measures were over 1470 nM, 2470 nM and over 10000 nM.
For `Cc1ccc(C)c2[nH]c(=O)c(CN(Cc3ccccc3)C(=S)NCCCN(C)C)cc12` the same measures were 5220 nM, over 4670 nM and 19500 nM.
For `CCn1nc(/C=C/c2ccccc2)nc2c(=O)n(C)c(=O)nc1-2`, the EC50 in the series with Plasmodium falciparum [1] is over 3330 nM; with Plasmodium falciparum [2], over 10000 nM. This molecule also displayed a CC50 in series [3] of 42000 nM.
In the case of `COc1cccc2c1OCC(C(=O)Nc1ccc(C)cc1)=C2`, the values for the EC50 in the series on Plasmodium falciparum [1] and with Plasmodium falciparum [2] were 461 nM and over 12500 nM, respectively. Besides, the CC50 in series [3] is 54700 nM.
The matching figures for `C[C@H]1C[C@H](C)C(=O)[C@@H]([C@@H](O)CC2CC(=O)NC(=O)C2)C1`: 21.6 nM, 67.5 nM and 304 nM.
For `COc1ccc(C(=O)N2C(C(=O)Nc3ccccc3F)CSC2c2ccc(C(C)(C)C)cc2)cc1` (stereo not given) the same measures were 940 nM, 801 nM and over 3600 nM.
In the case of `O=C1NC(=S)N/C1=C\C=C\c1ccc([N+](=O)[O-])o1`, the EC50 in the series with Plasmodium falciparum [1] was over 881 nM; with Plasmodium falciparum [2], 2200 nM. In series [3], the CC50 is over 10000 nM.
Turning to `CCN(CC)CCCC(C)Nc1cc(/C=C/c2ccc([N+](=O)[O-])cc2)nc2ccc(OC)cc12` (stereo not given), the EC50 in the series with Plasmodium falciparum [1] was 743 nM; with Plasmodium falciparum [2], 1300 nM. Also, the CC50 in series [3] is over 6250 nM.
Consider `Clc1cccc(CNC2CCN(CCc3ccccc3)CC2)c1`, for which the EC50 in the series with Plasmodium falciparum [1] turned out to be 298 nM; with Plasmodium falciparum [2], 801 nM. The same molecule gave a CC50 in series [3] of 3040 nM.
The matching figures for `O=[N+]([O-])c1cc(C(F)(F)F)cc([N+](=O)[O-])c1Sc1cccc2cccnc12`: 4340 nM, 1120 nM and 4340 nM.
